Consider one substance from patent EP0335134B1, “Mouse monoclonal antibody to human immunodeficiency virus gp41 protein” (ABBOTT LABORATORIES, priority 1988, dated 1989).

The test system of experiment [1] is monoclonal antibody 5-21-3. Kind of experiment: Immunoprecipitation of 125I synthetic peptides by 5-21-3. Format: binding, mouse. The procedure:
(§1) Synthetic peptides were radiolabeled with¹²⁵I (Amersham) by the chloramine T method (W.M. Hunter, "Radioimmunoassay" in D.M. Weir, Ed., Handbook of Experimental Immunology, [Blackwell Scientific Publications, 1973]). Generally, 2-6 ul of 100 mCi/ml ¹²⁵I were added to 10-50 ug of peptide in PBS, pH 7.4. Approximately 10 ug of freshly prepared (1 mg/ml in PBS) chloramine T were added to the mixture maintained at 4°C. After 5 min., [¹²⁵I]peptide was separated from free ¹²⁵I by passage of the reaction mixture through a 3 ml (bed volume) column of Biogel P-6 or P-2, as required. Fractions (200 ul each) containing [¹²⁵I]peptide were pooled and diluted into PBS containing 20% fetal calf serum. Rough estimations of¹²⁵I cpm bound to peptide were made by acid precipitation. An aliquot of labeled peptide was diluted into 1 ml of ice cold 50% trichloroacetic acid (TCA) overlaying a 0.45 um filter (made of mixed cellulose esters) set on a scintered glass filter connected to a vacuum apparatus. Precipitated protein was fixed onto the filter by application of vacuum, and filters were washed with ice-cold 50% TCA. Background cpm adhering non-specifically to the filter were estimated by repeating the procedure using a non-precipitating buffer. Amounts of peptide, ¹²⁵I, chloramine T, and composition of column eluting buffer were subject to change depending on conditions required to maintain solubility of each peptide.
Synthetic peptides radiolabeled with¹²⁵I were diluted into PBS (pH 7.4) containing 0.1% Triton X-100 (or other detergents where indicated) and 1.0% BSA, to yield approximately 2.5-5 X 10⁵ acid-precipitable cpm per 0.1 ml. Purified monoclonal IgG 5-21-3 and 10-15-63 were employed in the assay. Monoclonal antibodies were diluted into PBS containing 0.1% Triton X-100 (or other detergents where indicated), 1.0% BSA, and 2% normal mouse serum as a carrier immunoglobulin. Immune rabbit serum (anti-P58-130) was diluted appropriately into the same buffer except that normal rabbit serum (2%) was substituted for normal mouse serum as the carrier immunoglobulin. A reaction mixture comprising 0.1 ml [¹²⁵I] peptide (5 X l0⁵ cpm/0.1 ml) and 0.1 ml diluted antibody was incubated 1 hr at […], followed by addition of 0.1 ml of a precipitating antibody, either goat anti-mouse IgG, or goat anti-rabbit IgG, corresponding to the primary antibody. The reaction mixture was incubated 1 hr at […] and then overnight at 4°C. The precipitate was collected by centrifugation (2,000 x g, 5 min., 20°C), washed once in PBS containing 0.1% Triton X-100 and 1.0% BSA, collected by centrifugation, and counted in an LKB 128 gamma counter. […]

Experiment [2] concerns monoclonal antibody 10-15-63. Kind of experiment: Immunoprecipitation of 125I synthetic peptides by 10-15-63. The class given is binding, mouse. As to conditions: 10 ug/0.2 ml reaction mixture; 0.1% Triton X-100, 1.0% BSA, carrier serum; second antibody precipitation. The procedure: Synthetic peptides were radiolabeled with¹²⁵I (Amersham) by the chloramine T method (W.M. Hunter, "Radioimmunoassay" in D.M. Weir, Ed., Handbook of Experimental Immunology, [Blackwell Scientific Publications, 1973]). Generally, 2-6 ul of 100 mCi/ml ¹²⁵I were added to 10-50 ug of peptide in PBS, pH 7.4. Approximately 10 ug of freshly prepared (1 mg/ml in PBS) chloramine T were added to the mixture maintained at 4°C. After 5 min., [¹²⁵I]peptide was separated from free ¹²⁵I by passage of the reaction mixture through a 3 ml (bed volume) column of Biogel P-6 or P-2, as required. Fractions (200 ul each) containing [¹²⁵I]peptide were pooled and diluted into PBS containing 20% fetal calf serum. Rough estimations of¹²⁵I cpm bound to peptide were made by acid precipitation. […]
(§2) Synthetic peptides radiolabeled with¹²⁵I were diluted into PBS (pH 7.4) containing 0.1% Triton X-100 (or other detergents where indicated) and 1.0% BSA, to yield approximately 2.5-5 X 10⁵ acid-precipitable cpm per 0.1 ml. […] The precipitate was collected by centrifugation (2,000 x g, 5 min., 20°C), washed once in PBS containing 0.1% Triton X-100 and 1.0% BSA, collected by centrifugation, and counted in an LKB 128 gamma counter. […]

Experiment [3] has as its system Binding of Antibody 5-21-3 to rp41. Kind of experiment: Binding inhibition assay: peptides blocking 5-21-3 binding to rp41. Details: species or system mouse. As for the experimental part:
Additional evidence for the conformational nature of the 5-21-3 epitope was obtained using binding inhibition studies, in which synthetic peptides were ranked for their ability to inhibit binding of 5-21-3 to rp41. First, the Fab dimer of an anti-gp41 monoclonal antibody was prepared by conventional methods (Goding et al., supra). Then 100 ul of a 1 mg/ml solution of the Fab dimer in bicarbonate buffer (pH 9.6) was coated onto Immulon II microtiter plates for 1 hr at 37°C. After washing with PBS containing 0.05% Tween 20, the plates were overcoated with 200 ul of 1.0% ovalbumin in bicarbonate buffer (pH 9.6) for 1 hr at 30°C. After washing, 100 ul of rp41 enriched E. coli lysate (as described in Example 3), diluted appropriately in PBS containing 0.05% Tween 20, were allowed to bind to the Fab dimer for 2 hr at 30°C. The plates were washed and stored at 4°C.
Intact monoclonal antibody 5-21-3 IgG (purified from tissue culture fluid supporting growth of the cloned cell line 5-21-3) was titrated against the bound rp41 on the plate, and an antibody concentration was selected which yielded an A₄₉₂ value of 2.0-3.0. Usually, 0.4 pmol (0.06 ug) of 5-21-3 IgG per microtiter well was employed in these assays. Stock solutions of 5-21-3 IgG were prepared in PBS containing 0.1% Triton X-100 and 0.1% SDS. Dilutions of synthetic peptides were made in the same buffer (SDS was included in these experiments to keep peptides soluble at high concentrations).
The binding inhibition assay was performed by combining 0.15 ml of 1.2 ug/ml 5-21-3 antibody stock solution with 0.15 ml of peptide at a selected peptide concentration, and incubating the reaction mixture 1 hr at room temp. Then 0.1 ml aliquots of each reaction mixture were added to each of two wells in the microtiter tray. After a 1 hr incubation at room temp., the plates were washed, and HRPO conjugated Goat anti-mouse IgG Fc was added for 1 hr at room temp. The plates were washed, and addition of OPD for color development identified the relative amounts of 5-21-3 bound to rp41 in the microtiter wells. The reaction was stopped by addition of 100 ul of 1N H₂S0₄, and the plates were read on a Dynatech II microtiter plate reader.

The test system of experiment [4] is Rabbit (R) anti-P58-130 serum. Nature of the experiment: Immunoprecipitation of 125I synthetic peptides by rabbit anti-P58-130 serum. The class given is binding. As for the experimental part: as §1
as §2, with “ml. Purified monoclonal IgG 5-21-3 and 10-15-63 were employed in the assay. Monoclonal antibodies were diluted into PBS containing 0.1% Triton X-100 (or other detergents where indicated), 1.0% BSA, and 2% normal mouse serum as a carrier immunoglobulin.” for “ml.”

Experiment [5] deals with monoclonal antibody 5-21-3. Kind of experiment: Immuno-dot blot of synthetic peptides with 5-21-3. As to conditions: 25 ug/ml 5-21-3. The class given is binding, mouse. The source says:
The western Blot procedure described in Example 1 was employed for development of immuno-dot blots using synthetic peptides, except that synthetic peptides were fixed to nitrocellulose by direct application using Drummond lambda pipettes, and air dried prior to blocking with 20% fetal calf serum in PBS (pH 7.4). Monoclonal IgG 5-21-3, and a second anti-HIV I gp41 monoclonal antibody (IgG) 10-15-63 (which recognizes an epitope distinct and separate from the epitope recognized by 5-21-3), were purified from mouse ascites using Protein A-Sepharose, and employed at the concentrations indicated.
Immuno-dot blot results are illustrated in Figure 5 where synthetic peptides were spotted onto nitrocellulose as follows:(A) 10 ug P58-130, (B) 10 ug P67-154,(C) 6 ug P121-154 and (D) 9 ug of P126-162. The strips were reacted with 25 ug/ml monoclonal antibody 5-21-3, 25 ug/ml monoclonal antibody 10-15-63, 25 ug/ml normal mouse IgG, 2% mouse (M) anti-rp41 serum, 2% normal mouse serum (NMS), 2% Rabbit (R) anti-P58-130 serum, or 2% normal rabbit serum (NRS).

Where [6] appears, read: 10 ug/0.2 ml reaction mixture, 0.1% Triton X-100, 1.0% BSA, carrier serum, second antibody precipitation.
Where [7] appears, read: serum 20 ul/0.2 ml reaction mixture, 0.1% Triton X-100, 1.0% BSA, carrier serum, second antibody precipitation.

Consider “P121-154: synthetic peptide corresponding to gp41 amino acids 121-154 (DREINNYTSLIHSLIEESQNQQEKNEQELLELDK; Transmembrane protein gp41; UniProt P04578 632-665, looked up, fragment) [Peptide P121-154]”, for which, in experiment [1] (setting [6]), the “SPECIFIC PRECIPITATION (CPM) 5-21-3” value is on record as 40,717 CPM and the “x-fold increase of specific precipitation over non-specific precipitation, 5-21-3” value is 31 x-fold. Also, the “binding of the peptide by antibody 5-21-3” value in experiment [1] (in words, summary of Table 4) is on record as “provided an epitope which was recognized by 5-21-3”. Besides, the “5-21-3 concentration required to demonstrate reactivity against the peptide” value in experiment [1] (summary of Table 5) was “at least 100 ug/ml”. In addition, in experiment [2], the “SPECIFIC PRECIPITATION (CPM) 10-15-63” value was found to be 371 CPM and the “x-fold increase of specific precipitation over non-specific precipitation, 10-15-63” value is listed as 1.3 x-fold. In experiment [3], the “binding inhibition activity restored by flanking sequence, relative to P131-154” value is given as 20-65 fold and the “binding inhibition activity, fold less active than P67-154” value is listed as 20 fold. Further, the “Molar Ratio” value in experiment [3] (at 50% inhibition of 5-21-3 binding, mean of two experiments) is 1,494 pmoles peptide/pmoles 5-21-3. In experiment [3] (in words (Fig. 6, Table 6)), the “inhibition of 5-21-3 binding to rp41” value is listed as “potent inhibitor”. Moreover, the “precipitation by rabbit anti-P58-130” value in experiment [4] (in words, summary of Table 4) is “strong precipitator”. Besides, in experiment [4] (setting [7]), the “SPECIFIC PRECIPITATION (CPM) RαP58-130” value is given as 310,419 CPM and the “x-fold increase of specific precipitation over non-specific precipitation, RαP58-130” value is reported as 24 x-fold. In addition, in experiment [5] (mild washing procedures), the “dot blot reactivity with antibody 5-21-3” value is on record as “faint, diffuse reaction”. Further, the “dot blot reactivity with antibody 5-21-3” value in experiment [5] (peptide spotted on nitrocellulose) is reported as “difficult to demonstrate”.
